Assay results reported in PubChem BioAssay AID1963838 (Molecular Pharmacology Branch, DTP, NCI, 2024).
Values joined by “and” are separate entries in the source; they are usually repeats but may differ in a detail not shown here. Equal values may be shown once.

Tested on: 855422-203-R-J1-PDC complex spheroid viability
Experiment: Anticancer human tumor 855422-203-R-J1-PDC patient-derived bladder carcinoma cell line growth inhibition [POLQ]
Settings: for viability, T/C: stronger effect = lower value
Protocol: Multicellular complex tumor spheroid response to Polymerase (POL) inhibitors (novobiocin, ART-558, RP6685) in combination with a variety of drugs and investigational agents in selected tumor cell lines
The POL inhibitors (novobiocin, ART-558, and RP6685) were evaluated both individually and in combination with standard of care and investigational anticancer small molecules within a complex spheroid model of solid tumors. . Complex spheroids include a stromal component modeled by human endothelial cells (HUVEC) and fibroblasts modeled by human mesenchymal stem cells (MSCs). The concentration ranges selected for each drug and investigational agent were based upon clinically achievable concentrations if the clinical Cmax of the agent was known.
Compounds. The drugs and investigational agents: novobiocin (NSC847541), ART-558 (NSC835418), RP-6685 (NSC848927), peposertib (NSC802822), ceralasertib (NSC780249), elimusertib (NSC800525), camonsertib (NSC841442), AZD-1390 (NSC803789), olaparib (NSC753686), talazoparib (NSC767125), rucaparib (NSC756644), sotorasib (NSC818433), MRTX-1133 (NSC836407), SN-38 (NSC673596), topotecan (NSC609699), epotoside (NSC141540), doxorubicin (NSC123127), gemcitabine (NSC613327), 5-fluorouracil (NSC19893), paclitaxel (NSC125973), vemurafenib (NSC761431), MSA-2 (NSC828583), SN-011 (NSC837082), adavosertib (NSC754352), prexasertib (NSC758257), carboplatin (NSC241240) and oxaliplatin (NSC266046), were obtained from the National Cancer Institute (NCI) Developmental Therapeutics Program Chemical Repository (21). The FDA-approved anticancer drug set is available from the Developmental Therapeutics Program at https://dtp.cancer.gov/organization/dscb/obtaining/. […] The stock solutions were prepared in dimethyl sulfoxide (DMSO, Sigma-Aldrich, St. Louis, MO, cat. D2650), except for the platinum compounds which were prepared in saline (Quality Biological, Gaithersburg, MD, cat. 114-055-101), at 800-fold the tested concentration and stored at -70 degrees C prior to their use. All drugs and investigational agents were tested over a range starting from a high concentration at or near the clinical Cmax and decreasing in half-log increments. If the clinical Cmax for an agent had not been determined, the highest concentration tested was 10 microM, except for SN-38, which was tested at a high concentration of 1 microM.
Cell Culture. All cells were maintained in an incubator at 37 degrees C and 5% CO2 with 95% humidity. The PDC lines were cultured according to standard operating procedures established by the NCI PDMR (https://pdmr.cancer.gov). Table 3 of the manuscript, lists the cell lines along with the number of the three cell types plated to form the mct-spheroids and media for tumor cell growth. After thawing, all PDC lines, except 997537-175-T-J1-PDC and 415267-285-R-J2-PDC, were cultured in Matrigel-coated flasks prepared with a working solution of 1X Ham's F-12 nutrient mix, without supplementation (Thermo Fisher Scientific, cat. 11765054), 100 U/mL penicillin-streptomycin (Thermo Fisher Scientific, cat. 15140122), and 2.5% Matrigel (Corning Inc., Corning, NY, cat. 354248) for the first three passages. The two PDC lines 997537-175-T-J1-PDC and 415267-285-R-J2-PDC were cultured on uncoated flasks. The 857933-349-R-J2-PDC line was cultured in 6C/Colon 1B media containing advanced DMEM/F-12 (Thermo Fisher Scientific, cat. 12634028), 10 mM HEPES (Thermo Fisher Scientific, cat. 15630080), 1X GlutaMAX supplement (Thermo Fisher Scientific, cat. 35050061), 0.1 mg/mL primocin (InvivoGen, San Diego, CA, cat. ant-pm-2), 10% defined fetal bovine serum, heat inactivated (HyClone Laboratories Inc., Logan, UT, cat. SH30070.03HI), 50% L-WRN conditioned media (ATCC, cat. CRL-3276), 1.25 mM N-Acetyl-L-cysteine (Sigma-Aldrich, cat. A9165), 10 mM nicotinamide (Sigma-Aldrich, cat. N0636), 1X B-27 supplement (Thermo Fisher Scientific, cat. 17504044), 1X N-2 supplement (Thermo Fisher Scientific, cat. […]
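Further: spheroids exposed to compounds for seven days before readout.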

Molecule `CCCS(=O)(=O)Nc1ccc(F)c(C(=O)c2c[nH]c3ncc(-c4ccc(Cl)cc4)cc23)c1F` + COC1C(OC(N)=O)C(O)C(Oc2ccc3c(O)c(NC(=O)c4ccc(O)c(CC=C(C)C)c4)c(=O)oc3c2C)OC1(C)C has an IC50 (curve of first compound, second compound 0.0316 µM) of 5.93 µM, an IC50 (curve of first compound, second compound 0.1 µM) of 5.85 µM and an IC50 (curve of first compound, second compound 0.316 µM) of 5.94 µM. It also gave an IC50 (curve of first compound, second compound 1 µM) of 5.47 µM, an IC50 (curve of first compound, second compound 3.16 µM) of 5.74 µM and an IC50 (curve of first compound, second compound 10 µM) of 5.88 µM. For the same molecule, the viability, T/C (second compound 0.0316 µM, first compound 0.0316 µM) was 112%, the viability, T/C (second compound 0.0316 µM, first compound 0.1 µM) was 94.6% and the viability, T/C (second compound 0.0316 µM, first compound 0.316 µM) was 113%. It also gave a viability, T/C (second compound 0.0316 µM, first compound 1 µM) of 116%, a viability, T/C (second compound 0.0316 µM, first compound 3.16 µM) of 113% and a viability, T/C (second compound 0.0316 µM, first compound 10 µM) of 0.27%. It also gave a viability, T/C (second compound 0.1 µM, first compound 0.0316 µM) of 117%, a viability, T/C (second compound 0.1 µM, first compound 0.1 µM) of 108% and a viability, T/C (second compound 0.1 µM, first compound 0.316 µM) of 115%. It also gave a viability, T/C (second compound 0.1 µM, first compound 1 µM) of 107%, a viability, T/C (second compound 0.1 µM, first compound 3.16 µM) of 106% and a viability, T/C (second compound 0.1 µM, first compound 10 µM) of 1.29%. The viability, T/C (second compound 0.316 µM, first compound 0.0316 µM) was 118%, the viability, T/C (second compound 0.316 µM, first compound 0.1 µM) was 96.7% and the viability, T/C (second compound 0.316 µM, first compound 0.316 µM) was 114%. For the same molecule, the viability, T/C (second compound 0.316 µM, first compound 1 µM) was 107%, the viability, T/C (second compound 0.316 µM, first compound 3.16 µM) was 109% and the viability, T/C (second compound 0.316 µM, first compound 10 µM) was 1.4%. It also gave a viability, T/C (second compound 1 µM, first compound 0.0316 µM) of 119%, a viability, T/C (second compound 1 µM, first compound 0.1 µM) of 117% and a viability, T/C (second compound 1 µM, first compound 0.316 µM) of 108%. It also gave a viability, T/C (second compound 1 µM, first compound 1 µM) of 94.2%, a viability, T/C (second compound 1 µM, first compound 3.16 µM) of 98.7% and a viability, T/C (second compound 1 µM, first compound 10 µM) of 0.24%. The viability, T/C (second compound 3.16 µM, first compound 0.0316 µM) was 102%, the viability, T/C (second compound 3.16 µM, first compound 0.1 µM) was 111% and the viability, T/C (second compound 3.16 µM, first compound 0.316 µM) was 110%. It also gave a viability, T/C (second compound 3.16 µM, first compound 1 µM) of 118%, a viability, T/C (second compound 3.16 µM, first compound 3.16 µM) of 103% and a viability, T/C (second compound 3.16 µM, first compound 10 µM) of 0.36%. It also gave a viability, T/C (second compound 10 µM, first compound 0.0316 µM) of 108%, a viability, T/C (second compound 10 µM, first compound 0.1 µM) of 108% and a viability, T/C (second compound 10 µM, first compound 0.316 µM) of 96.2%. For the same molecule, the viability, T/C (second compound 10 µM, first compound 1 µM) was 116%, the viability, T/C (second compound 10 µM, first compound 3.16 µM) was 110% and the viability, T/C (second compound 10 µM, first compound 10 µM) was 0.68%.

With `CCc1c2c(nc3ccc(O)cc13)-c1cc3c(c(=O)n1C2)COC(=O)[C@]3(O)CC` the viability, T/C (compound 0.00316 µM) was 51.3% and 111% and 38.4%, the viability, T/C (compound 0.01 µM) was 12.8% and 30.6% and 13.8% and the viability, T/C (compound 0.0316 µM) was 6.94% and 13.9% and 6.52%. The viability, T/C (compound 0.1 µM) was 5.24% and 8.86% and 5.52%, the viability, T/C (compound 0.316 µM) was 3.34% and 4.22% (2×) and the viability, T/C (compound 1 µM) was 1.24% and 3.11% and 2.06%. The IC50 (curve of compound) was 0.00329 µM and 0.0077 µM and < 0.00316 µM.

`COc1ccc([C@@H](O)c2cc(-c3ncnc4cc(N5CCOCC5)ccc34)c(F)cc2Cl)nn1` was tested, and the viability, T/C (compound 0.0316 µM) was 86.6% and 104% and 118%, the viability, T/C (compound 0.1 µM) was 103% and 107% and 96.5% and the viability, T/C (compound 0.316 µM) was 94.5% and 103% and 109%. The viability, T/C (compound 1 µM) was 87.2% and 91.5% and 88.8%, the viability, T/C (compound 3.16 µM) was 60.9% and 109% and 69.5% and the viability, T/C (compound 10 µM) was 32% and 58.2% and 37.4%. For the same molecule, the IC50 (curve of compound) was 4.87 µM and > 10 µM and 6.35 µM.
